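Values below derive from 48-hour exposures of cells grown in 96-well plates, with endpoints linearly interpolated between the two concentrations bracketing the appropriate inhibition level. Here, GI50 denotes the concentration required for 50% inhibition of growth.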 The source made the active and inactive calls. Cut-off read from the data, not from the text of the source: active = GI50 up to about 1.1 µM and inactive = higher. Bounds are passed on as bounds.

Test systems include A549; MDA-MB-231; SF-295; NCI-H522; SN12C; SK-MEL-5; SK-MEL-28; CAKI-1; OVCAR-3; OVCAR-4; U-251; PC-3; RXF 393; SW-620; MCF7; OVCAR-8; HCT-15; HOP-92; HT-29; M14.
Experiment in all cases: NCI tumour cell line growth inhibition, 48 h

For the compound `COC(=S)OC1CC(n2cnc3c(=O)[nH]cnc32)OC1CO[Si](C)(C)C(C)(C)C` (stereo not given), the GI50 in the test on A549, with MDA-MB-231, with SF-295, with NCI-H522, in the test with SN12C and with SK-MEL-5 was > 100 µM (inactive) throughout. Further, the GI50 in the test with SK-MEL-28, in the test on CAKI-1, in the test with OVCAR-3, with OVCAR-4, in the test with U-251 and in the test with PC-3 was > 100 µM (inactive) throughout. For the same compound, the GI50 in the test with RXF 393 was > 100 µM (inactive); in the test on SW-620, > 100 µM (inactive); with MCF7, > 100 µM (inactive); with OVCAR-8 it was > 100 µM (inactive); in the test with HCT-15, over 100 µM; with HOP-92, > 100 µM (inactive). The GI50 in the test with HT-29 and in the test on M14 was > 100 µM (inactive) throughout.

The record behind these values is ChEMBL document CHEMBL1201862, “PubChem BioAssay data set” (2004).
